Read-outs that look alike come from different tables or passages of the source.
Tests used:
[1] = Denim bleaching: laccase-mediator (100 nkat/g, 5 mg/g, 30 min, 60° C.) compared to sodium hypochlorite (15 min, 40° C.)
Protocol: Different types of demin were treated with a TaLcc1 laccase product from Trichoderma strain RF5597 and DeniLite II Base from Novozymes and the results obtained were compared to hypochlorite bleaching. All together 27 pieces of different kinds of denim (whole jeans), which had been previously washed with cellulase after desizing to different abrasion levels or had been only desized with ECOSTONE®A200 (60° C., 10 min), were collected for the test (Table 15). The jeans were made of Indigo dyed denim, except the English jeans contained Indigo dyed denim with sulphur bottom. Jeans were cut in such a way that pieces from the same pair of jeans could be used for all tests.
The jeans were made of Indigo dyed denim (right hand twill), except the English jeans contained Indigo dyed denim with sulphur bottom. The weights of the original (i.e. not desized) denim fabrics were typically higher than 475 g/m^2 (14 oz/yd^2). The weights of three 10 cm×10 cm pieces were measured after 24 hours incubation at room temperature (ca. 22° C. and at relative moisture ca. 64%).
The laccase treatments were performed with Electrolux's Wascator FOM 71 CLS washer extractor under optimal conditions for each enzyme, described in Table 16. Methyl syringate (Example 7) was used as a mediator. Laccase was inactivated after draining by raising the pH above 11 by NaOH (10 min, 60° C.) and rinsing for three times. The fabrics were dried in a tumbler.
The sodium hypochlorite bleaching was performed with Electrolux's Wascator FOM 71 CLS washer extractor using denim obtained from the same jeans as in laccase treatments under conditions described in Table 17. Sodium hydroxide was added before adding 25 ml/l of 10% sodium hypochlorite solution (Klorite Forte, Farmos Oy) to keep the pH above 10.5 during the treatment. After draining the bleach liquor, there was one 2 minutes rinsing step with the liquor ratio of 1:20 before dechlorinating with sodium thiosulphate. After dechlorinating the denim samples were rinsed 3 times for 2 minutes with the liquor ratio of 1:20. The fabrics were dried in a tumbler.
The bleaching effect was evaluated by measuring the colour as reflectance values as in Example 7. […] Different looks were obtained depending on the type of the denim and cellulase treatment used. “Sulphur-bottom type” denim was the most difficult to bleach.

[2] = biological target: T1, Melanocarpus albomyces laccase MaL (Melanocarpus albomyces, UniProt Q70KY3); assay: Kinetic parameters of Melanocarpus albomyces laccase MaL (comparison); type: biochemical
T1 sequence (Q70KY3 51-609): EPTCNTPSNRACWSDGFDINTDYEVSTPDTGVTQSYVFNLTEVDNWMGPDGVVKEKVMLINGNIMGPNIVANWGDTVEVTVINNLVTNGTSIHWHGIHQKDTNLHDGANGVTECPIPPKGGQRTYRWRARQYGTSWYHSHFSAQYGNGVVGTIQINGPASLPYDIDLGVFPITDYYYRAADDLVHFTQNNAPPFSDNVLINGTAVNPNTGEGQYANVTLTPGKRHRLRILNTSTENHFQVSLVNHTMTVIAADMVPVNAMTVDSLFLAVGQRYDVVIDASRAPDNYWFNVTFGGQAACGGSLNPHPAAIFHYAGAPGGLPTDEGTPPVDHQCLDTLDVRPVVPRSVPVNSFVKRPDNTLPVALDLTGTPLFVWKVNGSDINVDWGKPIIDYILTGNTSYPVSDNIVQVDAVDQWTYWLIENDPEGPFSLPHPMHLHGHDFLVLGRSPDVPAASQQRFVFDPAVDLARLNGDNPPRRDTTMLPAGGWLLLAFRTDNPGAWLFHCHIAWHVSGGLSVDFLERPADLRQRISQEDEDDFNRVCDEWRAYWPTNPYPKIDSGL
Protocol: (§1) On syringaldazin and DMP 40 mM MES buffer, pH 6 and 25 mM succinate buffer. All activity assays were carried out at 25° C. Kinetic parameters were estimated by a nonlinear regression curve fit. The values were compared to those of Melanocarpus albomyces MaL, laccase.

[3] = biological target: T2, Thielavia arenaria ALKO4197 laccase TaLcc1, recombinant (rTaLcc1, expressed in Trichoderma reesei), SEQ ID NO: 12 (Canariomyces arenarius, UniProt F6N9E7); type: biochemical
T2 construct: predicted mature residues 22-604; no tag stated
T2 sequence (F6N9E7 with tags, fused parts or gaps): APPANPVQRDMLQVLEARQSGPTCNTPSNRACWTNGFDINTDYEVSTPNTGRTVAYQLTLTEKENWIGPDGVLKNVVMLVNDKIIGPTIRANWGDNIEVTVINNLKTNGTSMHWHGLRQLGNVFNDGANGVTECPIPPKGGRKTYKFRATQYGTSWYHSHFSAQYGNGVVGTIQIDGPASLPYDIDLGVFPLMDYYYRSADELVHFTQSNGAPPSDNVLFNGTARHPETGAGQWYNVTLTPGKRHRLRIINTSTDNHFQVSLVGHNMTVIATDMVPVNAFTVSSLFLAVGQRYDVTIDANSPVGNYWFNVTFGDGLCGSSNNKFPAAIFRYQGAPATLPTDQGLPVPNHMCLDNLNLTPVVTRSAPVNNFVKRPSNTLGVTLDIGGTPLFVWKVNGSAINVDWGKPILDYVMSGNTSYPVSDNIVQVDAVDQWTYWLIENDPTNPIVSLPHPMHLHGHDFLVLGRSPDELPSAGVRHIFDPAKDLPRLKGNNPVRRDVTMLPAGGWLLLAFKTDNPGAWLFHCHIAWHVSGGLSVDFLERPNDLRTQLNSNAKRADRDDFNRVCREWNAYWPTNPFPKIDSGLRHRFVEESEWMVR
Protocol: as §1

[4] = substrate: COc1cc(/C=N/N=C/c2cc(OC)c(O)c(OC)c2)cc(OC)c1O; assay: purified protein, by the assay type; type: biochemical, Thielavia arenaria; details: other: syringaldazin and DMP, 40 mM MES buffer, pH 6 and 25 mM succinate buffer, 25° C.
Protocol: as §1

[5] = sample B1: Basic Jeans, Ecostone P1250
[6] = sample E1: English jeans (sulphur bottom), desized only
[7] = sample E2: English jeans, Ecostone NP2000
[8] = sample E3: English jeans, Rocksoft NCE-EA
[9] = sample E4: English jeans, Rocksoft NCE-2X
[10] = sample E5: English jeans, Ecostone L900
[11] = sample E6: English jeans, Ecostone L900
[12] = sample E7: English jeans, Ecostone L900
[13] = sample L1: Lee Cooper jeans, desized only
[14] = sample L2: Lee Cooper jeans, Ecostone L
[15] = sample L3: Lee Cooper jeans, Biotouch C29
[16] = sample L4: Lee Cooper jeans, Ecostone L
[17] = sample L5: Lee Cooper jeans, Indiage Max L
[18] = sample L6: Lee Cooper jeans, Indiage Super L
[19] = sample L7: Lee Cooper jeans, Ecostone CXP500 Exper.
[20] = sample L8: Lee Cooper jeans, Ecostone CXP experimental
[21] = sample L9: Lee Cooper jeans, Ecostone N400
[22] = sample T1: Tincan jeans, desized only
[23] = sample T2: Tincan jeans, Ecostone N400
[24] = sample T3: Tincan jeans, Ecostone L300
[25] = sample T4: Tincan jeans, Denimax 991S
[26] = sample W1: Warric jeans, desized only
[27] = sample W2: Warric jeans, Ecostone P4500
[28] = sample W3: Warric jeans, Indiage Max G
[29] = sample W4: Warric jeans, Ecostone NP2000
[30] = sample W5: Warric jeans, Ecostone L900
[31] = sample W6: Warric jeans, Denabraide MBL 65 E
[32] = syringaldazin and DMP, 40 mM MES buffer, pH 6 and 25 mM succinate buffer, 25° C.
[33] = ABTS, 25 mM succinate buffer, pH 4.5, 25° C.

## OCl [sodium hypochlorite, reference compound]
[1]; [5]
  L* after treatment: 40.62
  b* after treatment: −17.37
[1]; [6]
  L* after treatment: 21.91
  b* after treatment: −15.03
[1]; [7]
  L* after treatment: 33.30
  b* after treatment: −16.43
[1]; [8]
  Increase of L*: 9.40
  L* after treatment: 34.13
  b* after treatment: −16.73
[1]; [9]
  L* after treatment: 35.83
  b* after treatment: −16.86
[1]; [10]
  L* after treatment: 33.85
  b* after treatment: −16.48
[1]; [11]
  L* after treatment: 30.61
  b* after treatment: −16.65
[1]; [12]
  L* after treatment: 32.36
  b* after treatment: −16.75
[1]; [13]
  L* after treatment: 31.23
  b* after treatment: −20.83
[1]; [14]
  L* after treatment: 44.11
  b* after treatment: −18.60
[1]; [15]
  L* after treatment: 39.71
  b* after treatment: −19.67
[1]; [16]
  L* after treatment: 40.63
  b* after treatment: −19.25
[1]; [17]
  L* after treatment: 39.47
  b* after treatment: −19.48
[1]; [18]
  L* after treatment: 41.50
  b* after treatment: −18.68
[1]; [19]
  L* after treatment: 37.91
  b* after treatment: −19.85
[1]; [20]
  L* after treatment: 40.74
  b* after treatment: −19.12
[1]; [21]
  L* after treatment: 40.82
  b* after treatment: −18.82
[1]; [22]
  L* after treatment: 33.97
  b* after treatment: −17.95
[1]; [23]
  L* after treatment: 34.38
  b* after treatment: −18.22
[1]; [24]
  L* after treatment: 40.33
  b* after treatment: −18.30
[1]; [25]
  L* after treatment: 37.66
  b* after treatment: −18.58
[1]; [26]
  L* after treatment: 27.75
  b* after treatment: −18.76
[1]; [27]
  L* after treatment: 39.35
  b* after treatment: −17.39
[1]; [28]
  L* after treatment: 41.11
  b* after treatment: −16.79
[1]; [29]
  L* after treatment: 38.07
  b* after treatment: −17.33
[1]; [30]
  L* after treatment: 37.12
  b* after treatment: −18.03
[1]; [31]
  L* after treatment: 36.65
  b* after treatment: −17.95

## COc1cc(/C=N/N=C/c2cc(OC)c(O)c(OC)c2)cc(OC)c1O [Syringaldazin, syringaldazine]
[2]; [32]
  kcat: 78.5 s⁻¹

## CCn1c(=NN=c2sc3cc(S(=O)(=O)O)ccc3n2CC)sc2cc(S(=O)(=O)O)ccc21 [ABTS, 2,2′azinobis-3-ethylbenzthiazole-6-sulphonate]
[3]; [33]
  Km: 75 µM
  kcat: 68.83 s⁻¹
[2]; pH 4.5
  kcat: 78.17 s⁻¹

## COc1cccc(OC)c1O [DMP, 2,6-dimethoxy phenol]
[3]; [32]
  kcat: 67.17 s⁻¹
[2]; [32]
  kcat: 69.33 s⁻¹

B1: Thielavia arenaria ALKO4197 laccase TaLcc1, recombinant (rTaLcc1, expressed in Trichoderma reesei), SEQ ID NO: 12 (Canariomyces arenarius) (protein)
chain: APPANPVQRDMLQVLEARQSGPTCNTPSNRACWTNGFDINTDYEVSTPNTGRTVAYQLTLTEKENWIGPDGVLKNVVMLVNDKIIGPTIRANWGDNIEVTVINNLKTNGTSMHWHGLRQLGNVFNDGANGVTECPIPPKGGRKTYKFRATQYGTSWYHSHFSAQYGNGVVGTIQIDGPASLPYDIDLGVFPLMDYYYRSADELVHFTQSNGAPPSDNVLFNGTARHPETGAGQWYNVTLTPGKRHRLRIINTSTDNHFQVSLVGHNMTVIATDMVPVNAFTVSSLFLAVGQRYDVTIDANSPVGNYWFNVTFGDGLCGSSNNKFPAAIFRYQGAPATLPTDQGLPVPNHMCLDNLNLTPVVTRSAPVNNFVKRPSNTLGVTLDIGGTPLFVWKVNGSAINVDWGKPILDYVMSGNTSYPVSDNIVQVDAVDQWTYWLIENDPTNPIVSLPHPMHLHGHDFLVLGRSPDELPSAGVRHIFDPAKDLPRLKGNNPVRRDVTMLPAGGWLLLAFKTDNPGAWLFHCHIAWHVSGGLSVDFLERPNDLRTQLNSNAKRADRDDFNRVCREWNAYWPTNPFPKIDSGLRHRFVEESEWMVR
notes: predicted mature residues 22-604; no tag stated
[4]
  Km: 4.3 µM
  kcat: 32.3 s⁻¹
  kcat/Km: 7.52e+06 M⁻¹ s⁻¹

Source: patent publication US7927849B2, “Laccase enzyme and use thereof” (AB Enzymes OY, priority 2004, dated 2011)
